In brackets after ≈: the same amount, converted by molar mass.
Legend:
Bacillus subtilis = test: Antimicrobial activity against Bacillus subtilis (MIC, disc); assay type: cell-based; details: for B.s. MIC: Bacillus subtilis
RNA polymerase = test: Enzyme inhibition: RNA polymerase inhibition; assay type: biochemical
[1] = tested on: HT29 = human colon carcinoma; test: Cytotoxicity against HT29 cells; assay type: cell-based
[2] = tested on: L1210 = murine lymphoma cells; test: Cytotoxicity against L1210 cells; assay type: cell-based
DNA synthesis = test: Antimetabolism: DNA synthesis inhibition; assay type: cell-based
RNA synthesis = test: Antimetabolism: RNA synthesis inhibition; assay type: cell-based
[3] = tested on: CV-1 = monkey kidney cells; test: Cytotoxicity against CV-1 cells; assay type: cell-based
[4] = tested on: A549 = human lung carcinoma; test: Cytotoxicity against A549 cells; assay type: cell-based
[5] = tested on: P388 = murine lymphoma cells; test: Cytotoxicity against P388 cells; assay type: cell-based
MEL28 = human melanoma = test: Cytotoxicity against MEL28 cells; assay type: cell-based
protein synthesis = test: Antimetabolism: protein synthesis inhibition; assay type: cell-based
DNA polymerase = test: Enzyme inhibition: DNA polymerase inhibition; assay type: biochemical
[6] = tested on: P388 murine leukemia, B16 melanoma, Lewis lung carcinoma, and several human tumor xenograft models in mice; details: human tumor xenografts in mice; cited from earlier work
B16 melanoma = details: evaluated by the NCI; cited from earlier work
Stability in solution = assay type: physicochemical; details: giving reddish color

Compound | B.s. MIC (Bacillus subtilis) [μg/disc] | RNAp (RNA polymerase inhibition) IC50 (RNA polymerase) [µg/mL] | HT29 IC50 [1] [µg/mL] | DNA (DNA synthesis inhibition) IC50 (DNA synthesis) [µg/mL] | RNA (RNA synthesis inhibition) IC50 (RNA synthesis) [µg/mL] | CV-1 IC50 [3] [µg/mL] | A549 IC50 [4] [µg/mL] | P388 IC50 [5] [µg/mL] | MEL28 IC50 (MEL28 = human melanoma) [µg/mL] | Prot. (protein synthesis inhibition) IC50 (protein synthesis) [µg/mL] | also measured
Ecteinascidin 596 [Et 596] |  |  |  |  |  |  |  |  |  |  | antimicrobial activity against B. subtilis (MIC) (Bacillus subtilis; crude sample, single major peak by FABMS): 0.3 μg/disc
COc1cc2c(cc1O)CCNC21CSC2c3c(OC(C)=O)c(C)c4c(c3C(COC1=O)N1C(O)C3Cc5cc(C)c(OC)c(O)c5C(C21)N3C=O)OCO4 (stereo not shown) [N—CHO] | 6.60 | 4 |  |  |  |  |  |  |  |  | 
COc1cc2c(cc1O)CCNC21CSC2c3c(OC(C)=O)c(C)c4c(c3C(COC1=O)N1C(C(C=O)C=O)C3Cc5cc(C)c(OC)c(O)c5C(C21)N3C)OCO4 (stereo not shown) [Et 815, Ecteinascidin 815] | 0.75 |  | 0.005 | >1 | 0.1 | 0.005 | 0.005 | 0.0025 |  |  | L1210 IC50 [2]: 0.025 µg/mL
COc1cc2c(cc1O)CCNC21CSC2c3c(OC(C)=O)c(C)c4c(c3C(COC1=O)N1CC3Cc5cc(C)c(OC)c(O)c5C(N3)C21)OCO4 (stereo not shown) [Et 731, Ecteinascidin 731] | 6.20 |  | 0.1 |  |  | 0.2 | 0.1 | 0.1 | 0.2 | >1 | 
COc1cc2c(cc1O)CCN[C@]21CS[C@@H]2c3c(OC(C)=O)c(C)c4c(c3[C@H](COC1=O)N1[C@@H]2[C@@H]2N[C@@H](Cc3cc(C)c(OC)c(O)c32)[C@@H]1O)OCO4 [Et 729] | 0.08 | 0.05 | 0.0005 | 0.2 | 0.02 | 0.0025 | 0.0002 | 0.0002 | 0.005 | >1 | DNAp (DNA polymerase inhibition) IC50 (DNA polymerase): 1.5 µg/mL; L1210 IC50 [2]: <0.001 µg/mL; efficacy in vivo [6]: promising efficacy in vivo; survivors 60 days following infection with B16 melanoma (B16 melanoma): 8 of 10
COc1c(C)cc2c(c1O)C1NC(C2)C(O)N2C3COC(=O)C(N)CSC(c4c(OC(C)=O)c(C)c(OC)c(O)c43)C12 (stereo not shown) [Et 583, Ecteinascidin 583] | 0.74 | 0.5 |  |  |  |  |  |  |  |  | IC50 ([1]; HT-29): 0.01 µg/mL (≈ 0.0166 µM); IC50 (MEL28 = human melanoma; SK-MEL-28): 0.005 µg/mL (≈ 0.00831 µM); IC50 (DNA synthesis): 1 µg/mL (≈ 1.66 µM); IC50 (RNA synthesis): 0.4 µg/mL (≈ 0.665 µM); IC50 ([3]; Primates): 0.025 µg/mL (≈ 0.0416 µM); IC50 [4]: 0.01 µg/mL (≈ 0.0166 µM); IC50 (protein synthesis; read-out: Prot. (protein synthesis inhibition) IC50): 1 µg/mL (≈ 1.66 µM); IC50 ([5]; Mus musculus): 0.01 µg/mL (≈ 0.0166 µM)
COc1cc2c(cc1O)CCN[C@]21CS[C@@H]2c3c(OC(C)=O)c(C)c4c(c3[C@H](COC1=O)N1[C@@H]2[C@H]2c3c(cc(C)c(OC)c3O)C[C@@H]([C@@H]1O)N2C)OCO4 [Et 743] | 0.02 | 0.1 | 0.0005 | 0.1 | 0.03 | 0.001 | 0.0002 | 0.0002 | 0.005 | >1 | DNAp (DNA polymerase inhibition) IC50 (DNA polymerase): 2 µg/mL; L1210 IC50 [2]: 0.005 µg/mL; efficacy in vivo [6]: promising efficacy in vivo
COc1c(C)cc2c(c1O)[C@@H]1[C@@H]3[C@@H]4SC[C@H](N)C(=O)OC[C@@H](c5c(O)c(OC)c(C)c(OC(C)=O)c54)N3[C@@H](O)[C@@H](C2)N1C [Et 597, Ecteinascidin 597] | 0.14 | 0.25 | 0.002 | 0.08 | 0.01 | 0.0025 | 0.002 | 0.002 | 0.002 | 0.7 | stability in solution (Stability in solution): decomposed slowly in solution
COc1cc2c(cc1O)CCN[C@]21CS[C@@H]2c3c(OC(C)=O)c(C)c4c(c3[C@H](COC1=O)N1C[C@@H]3Cc5cc(C)c(OC)c(O)c5[C@H]([C@H]21)N3C)OCO4 [Et 745] | 6.50 |  | 0.025 | >1 | 0.3 | 0.05 | 0.02 | 0.01 | 0.05 |  | 
COc1cc2c(cc1O)CCN[C@]21C[S+]([O-])[C@@H]2c3c(OC(C)=O)c(C)c4c(c3[C@H](COC1=O)N1[C@H]2[C@H]2c3c(cc(C)c(OC)c3O)C[C@@H]([C@H]1O)N2C)OCO4 (stereo partly shown) [Et 759B] | 3.90 | >1 | 0.005 | 0.7 | 0.5 | 0.025 | 0.005 | 0.005 | 0.01 | >1 | 
COc1cc2c(cc1OC(C)=O)CCN[C@]21CS[C@@H]2c3c(OC(C)=O)c(C)c4c(c3[C@H](COC1=O)N1[C@@H]2[C@H]2c3c(O)c(OC)c(C)c(Br)c3C[C@@H]([C@@H]1O)N2C)OCO4 [6′-Ac, 15-Br] |  | 0.42 |  | 0.5 |  |  |  |  |  |  | 
COc1c(C)cc2c(c1O)[C@@H]1[C@@H]3[C@@H]4SC[C@]5(NCCc6c5[nH]c5ccccc65)C(=O)OC[C@@H](c5c6c(c(C)c(OC(C)=O)c54)OCO6)N3[C@@H](O)[C@H](C2)N1C [Et 736] | 0.38 | 0.5 | 0.0025 | 0.4 | 0.1 | 0.0025 | 0.001 | 0.0005 | 0.0025 | 0.5 | 
COc1cc2c(cc1O)CCNC21C[S+]([O-])C2c3c(OC(C)=O)c(C)c4c(c3C(COC1=O)N1C(O)C3Cc5cc(C)c(OC)c(O)c5C(N3)C21)OCO4 (stereo not shown) [Et 745B, Ecteinascidin 745B] |  | 3 | 0.01 | >1 | 0.5 | 0.025 | 0.01 | 0.005 |  |  | L1210 IC50 [2]: 0.025 µg/mL
COc1c(C)cc2c(c1O)C1C3[C@@H]4SCC(=O)C(=O)OC[C@@H](c5c6c(c(C)c(OC(C)=O)c54)OCO6)N3[C@@H](O)[C@H](C2)N1C (stereo partly shown) [Et 594, Ecteinascidin 594] | 0.37 | 1.0 | 0.025 | 0.5 | 0.5 | 0.025 | 0.02 | 0.01 | 0.025 | 0.8 | 
COc1cc2c(cc1O)CCNC21CSC2c3c(OC(C)=O)c(C)c4c(c3C(COC1=O)N1C(O)C3Cc5c(Br)c(C)c(OC)c(O)c5C(C21)N3C=O)OCO4 (stereo not shown) [N—CHO, 15-Br (18)] |  |  | 0.2 |  |  | 0.25 | 0.2 | 0.05 |  |  | 
COc1c(C)cc2c(c1O)[C@H]1N[C@@H](C2)[C@H](O)N2[C@H]1[C@@H]1SC[C@]3(NCCc4c3[nH]c3ccccc43)C(=O)OC[C@H]2c2c3c(c(C)c(OC(C)=O)c21)OCO3 [Et 722] | 0.70 | 0.5 | 0.002 | 0.4 | 0.1 | 0.005 | 0.001 | 0.001 | 0.002 | 0.9 | DNAp (DNA polymerase inhibition) IC50 (DNA polymerase): >1 µg/mL; efficacy in vivo [6]: promising efficacy in vivo

— patent publication US20090247533A1, “Ecteinascidins” (The Board of Trustees of the University of Illinois, priority 1994, published 2009)
